For orientation: Ki means the equilibrium dissociation constant of an inhibitor or competing ligand from its target. A lower Ki goes with a stronger hold on the target.

Data on two compounds can be found in PMC7956643, “Synthesis of Novel Pyrido[1,2-c]pyrimidine Derivatives with 6-Fluoro-3-(4-piperidynyl)-1,2-benzisoxazole Moiety as Potential SSRI and 5-HT1A Receptor Ligands” (International Journal of Molecular Sciences, 2021).

Entries after “also recorded” stand apart in the source; their conditions may differ.

The test system of experiment [1] is CD-1 mice. Briefly: Forced swim test in mice. Format: in vivo. The conditions noted are these: administered 30 min before test. As for the experimental part: All studies were performed according to the guidelines of the European Community Council (Directive 86/609/EEC) and were approved by the Ethical Committee of the Institute of Pharmacology (88/2016, 05/31/2016). The experiments were performed on male CD-1 mice (23–40 g). The animals were kept at room temperature (21 ± 2 °C) on a natural day-night cycle (March–October) and housed under standard laboratory conditions. They had free access to food and tap water before the experiment. Each experimental group consisted of 6–8 animals/dose. All the animals were used only once. 8-Hydroxy-2-(di-n-propylamino)tetralin hydro-bromide (8-OH-DPAT, Research Biochemical Inc.) was used as aqueous solution. Compounds 6a and 7g were suspended in a 10% aqueous solution of dimethyl sulphoxide (DMSO). Vehicle group was administered as 10% aqueous solution of dimethyl sulphoxide (DMSO). […] The obtained data were analyzed by Dunnett’s test (one drug administration) or by the Newman–Keuls test (two drugs administrations). Forced swim test: the obtained data was evaluated by one-way analysis of variance (ANOVA) followed by the Dunnett’s multiple comparisons test: p < 0.05 was considered significant.
The forced swim test (FST) was carried out according to the method of Porsolt at al.. […] After the first 2 min adaptation period, the total duration of immobility was measured during the last 4 min test. […]

Experiment [2] concerns the target T1, SERT protein (Rattus norvegicus, UniProt P31652).
T1 construct: from tissue; host or cells: rat cortex
Briefly: SERT radioligand binding assay. As to conditions: [3H]-citalopram 1.0 nM; rat cortex tissue. On the procedure: Radioligand binding was performed using rat cortex tissue. All assays were carried out in duplicate. First, 50 µL working solution of the tested compounds, 50 µL [^3H]-citalopram (final concentration 1.0 nM) and 150 µL tissue suspension, prepared in assay buffer (50 mM Tris. pH 7.7; 150 mM NaCl; 5 mM KCl), were transferred to a polypropylene 96-well microplate using 96-wells pipetting station Rainin Liquidator (MettlerToledo). […] The reaction was terminated by rapid filtration through GF/B filter mate presoaked with 0.3% polyethyleneimine for 30 min. Ten rapid washes with 200 µL 50 mM Tris buffer (4 °C, pH 7.7) were performed using an automated harvester system—Harvester-96 MACH III FM (Tomtec). […] Data were fitted to a one-site curve-fitting equation with Prism 6 (GraphPad Software) and Ki values were estimated from the Cheng–Prusoff equation.

The target of experiment [3] is T2, 5-HT2A receptors (Homo sapiens, UniProt P28223).
T2 construct: expressed in transfected cells
T2 sequence (P28223 whole entry): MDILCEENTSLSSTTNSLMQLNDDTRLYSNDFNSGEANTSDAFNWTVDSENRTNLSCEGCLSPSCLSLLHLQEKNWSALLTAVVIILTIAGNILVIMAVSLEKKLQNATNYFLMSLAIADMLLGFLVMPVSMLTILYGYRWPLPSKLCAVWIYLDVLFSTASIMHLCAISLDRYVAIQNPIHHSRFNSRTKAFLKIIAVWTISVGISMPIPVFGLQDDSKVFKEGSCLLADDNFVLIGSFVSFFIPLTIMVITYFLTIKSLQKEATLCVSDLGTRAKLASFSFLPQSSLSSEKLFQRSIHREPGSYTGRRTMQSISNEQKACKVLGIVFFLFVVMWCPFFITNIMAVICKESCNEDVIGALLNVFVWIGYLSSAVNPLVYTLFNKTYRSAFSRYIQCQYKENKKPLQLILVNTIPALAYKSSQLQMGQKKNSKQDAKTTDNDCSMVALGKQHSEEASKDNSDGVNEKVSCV
Briefly: 5-HT2A radioligand binding assay. As to conditions: [3H]-ketanserin; HEK293 cells, human receptor. As for the experimental part:
In vitro radioligand binding assays for 5-HT2A, 5-HT6, 5-HT7 and D2 receptors were carried out using methods published by Zajdel et al.. For the assays, HEK293 cell cultures stably expressing the investigated human receptors were used. Cell pellets were thawed and homogenized in 20 vol of assay buffer using an Ultra Turrax tissue homogenizer, then centrifuged twice at 35000 g for 20 min at 4 °C, with incubation for 15 min at 37 °C in between. The composition of the assay buffers was as follows: for 5-HT2A receptors—50 mM Tris-HCl, 0.1 mM EDTA, 4 mM MgCl2 and 0.1% ascorbate; for 5-HT6 receptors—50 mM Tris-HCl, 0.5 mM EDTA, 4 mM MgCl2; for 5-HT7 receptors—50 mM Tris-HCl, 4 mM MgCl2, 10 µM pargyline and 0.1% ascorbate; for D2 receptors—50 mM Tris-HCl, 1 mM EDTA, 4 mM MgCl2, 120 mM NaCl, 5 mM KCl, 1.5 mM CaCl2 and 0.1% ascorbate. […] The process of equilibration was terminated by rapid filtration through Unifilter plates with a 96-well cell harvester, and radioactivity retained on the filters was quantified on a Microbeta plate reader (PerkinElmer, USA). For displacement studies, the assay samples contained as radioligands (PerkinElmer): 2 nM [^3H]-ketanserin (spec. act. 53.4 Ci/mmol) for 5-HT2A receptors; 2 nM [^3H]-LSD (spec. act. 83.6 Ci/mmol) for 5-HT6 receptors; 0.6 nM [^3H]-5-CT (spec. act. 39.2 Ci/mmol) for 5-HT7 receptors and [^3H]-raclopride (spec. act. 76.0 Ci/mmol) for D2 receptors. […] Each compound was tested in triplicate at 7–8 concentrations (10^-11-10^-4 M). The inhibition constants (Ki) were calculated from the Cheng–Prusoff equation [46]. Results were expressed as means of at least two separate experiments.

T1 sequence (P31652 whole entry): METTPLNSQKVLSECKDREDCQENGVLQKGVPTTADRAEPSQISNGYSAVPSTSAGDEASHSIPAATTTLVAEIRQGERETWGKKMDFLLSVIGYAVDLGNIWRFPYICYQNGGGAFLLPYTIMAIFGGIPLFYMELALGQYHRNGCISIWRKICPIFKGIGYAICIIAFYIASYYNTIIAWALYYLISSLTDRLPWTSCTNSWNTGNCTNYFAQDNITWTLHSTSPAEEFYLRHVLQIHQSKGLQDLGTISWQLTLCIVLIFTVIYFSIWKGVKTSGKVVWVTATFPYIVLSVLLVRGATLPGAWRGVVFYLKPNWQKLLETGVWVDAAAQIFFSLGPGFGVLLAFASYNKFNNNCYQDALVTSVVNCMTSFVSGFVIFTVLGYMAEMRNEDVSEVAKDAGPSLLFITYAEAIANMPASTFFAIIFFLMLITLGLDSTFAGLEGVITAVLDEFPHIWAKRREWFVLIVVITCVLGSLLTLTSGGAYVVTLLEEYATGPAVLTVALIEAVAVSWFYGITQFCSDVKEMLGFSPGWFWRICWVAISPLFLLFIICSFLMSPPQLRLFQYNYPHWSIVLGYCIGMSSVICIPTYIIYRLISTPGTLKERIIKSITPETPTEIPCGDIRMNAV

Regarding `O=c1c(-c2ccccc2)c2ccccn2c(=O)n1CCCCN1CCC(c2noc3cc(F)ccc23)CC1` [Compound 6a, 4-Phenyl-2-{4-[4-(6-fluoro-1,2-benzoxazol-3-yl)-1-piperidyl]butyl}-pyrido[1,2-c]pyrimidine-1,3-dione], the “Effect in the forced swimming test” value in experiment [1] is on record as “inactivity; also recorded: ineffective”. Also, the Ki came out at 32 ± 3.6 nM in experiment [2] and 17 ± 3 nM in experiment [3].

For `O=c1c(-c2ccccc2Cl)c2ccccn2c(=O)n1CCCCN1CCC(c2noc3cc(F)ccc23)CC1` [Compound 6d, 4-(2-Chlorophenyl)-2-{4-[4-(6-fluoro-1,2-benzoxazol)-1-piperidyl]butyl}-pyrido[1,2-c]pyrimidine-1,3-dione], the Ki was found to be 373 ± 32 nM in experiment [2] and 20 ± 4 nM in experiment [3].
